Results published in patent US20230295157A1, “3-(1H-IMIDAZOL-2-YL)-2,3,8,8A-TETRAHYDROINDOLIZIN-5(1H)-ONE DERIVATIVES USEFUL AS FACTOR XIA INHIBITORS” (JANSSEN PHARMACEUTICA NV, priority 2020, published 2023).
Where two headings read alike, the source gives them in different places.

How the values were obtained:
Factor XIa = Factor XIa (Homo sapiens (Human), UniProt P03951); assay: Factor XIa inhibition assay (FLINT) utilizing a fluorophore-quencher pair peptide substrate; format: biochemical; conditions: 30 min preincubation, read-out: FXIa Kin Inh IC50
Factor XIa, sequence (P03951 388-625): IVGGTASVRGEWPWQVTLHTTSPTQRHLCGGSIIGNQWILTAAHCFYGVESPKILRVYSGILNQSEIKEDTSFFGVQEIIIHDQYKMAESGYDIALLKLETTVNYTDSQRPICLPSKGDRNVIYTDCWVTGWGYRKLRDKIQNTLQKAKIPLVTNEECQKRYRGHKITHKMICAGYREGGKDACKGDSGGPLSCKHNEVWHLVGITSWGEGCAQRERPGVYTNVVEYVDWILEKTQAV
Factor XIa, sequence (P03951 19-387 partner): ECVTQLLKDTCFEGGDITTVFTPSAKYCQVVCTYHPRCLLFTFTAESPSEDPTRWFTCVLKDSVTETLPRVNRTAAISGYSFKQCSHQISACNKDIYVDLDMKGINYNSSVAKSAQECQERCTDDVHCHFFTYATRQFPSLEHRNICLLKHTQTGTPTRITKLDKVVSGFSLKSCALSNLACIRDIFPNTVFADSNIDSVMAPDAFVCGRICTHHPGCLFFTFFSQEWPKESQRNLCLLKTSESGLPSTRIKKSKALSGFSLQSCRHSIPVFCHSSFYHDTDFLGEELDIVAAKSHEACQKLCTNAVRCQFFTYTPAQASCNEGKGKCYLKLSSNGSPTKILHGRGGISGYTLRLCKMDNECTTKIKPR
In short: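 FXIa ([…]) preincubated 30 min with compound (11-point 3-fold dilution, top 100 nM, 2% DMSO), then 15 μM quenched FXI Arg146-based peptide added; Tris pH 7.5, CaCl2, BSA, CHAPS. Fluorescence 485/520 nm read kinetically every 5 min over 30 min at RT; IC50 by 4-parameter fit.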

human plasma kallikrein = human plasma kallikrein (Homo sapiens (Human), UniProt P03952); assay: Kallikrein inhibition assay (FLINT) utilizing a quenched AMC peptide substrate; format: biochemical; conditions: 30 min preincubation, read-out: Kallikrein Kin Inh IC50
human plasma kallikrein, sequence (P03952 391-638): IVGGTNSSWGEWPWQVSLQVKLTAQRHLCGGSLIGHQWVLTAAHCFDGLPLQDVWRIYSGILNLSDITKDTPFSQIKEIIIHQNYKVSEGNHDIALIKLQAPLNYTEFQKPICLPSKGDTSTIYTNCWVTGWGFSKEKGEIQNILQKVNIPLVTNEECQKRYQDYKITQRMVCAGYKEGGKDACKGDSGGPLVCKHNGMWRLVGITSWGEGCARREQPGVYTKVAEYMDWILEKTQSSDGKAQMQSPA
human plasma kallikrein, sequence (P03952 20-390 partner): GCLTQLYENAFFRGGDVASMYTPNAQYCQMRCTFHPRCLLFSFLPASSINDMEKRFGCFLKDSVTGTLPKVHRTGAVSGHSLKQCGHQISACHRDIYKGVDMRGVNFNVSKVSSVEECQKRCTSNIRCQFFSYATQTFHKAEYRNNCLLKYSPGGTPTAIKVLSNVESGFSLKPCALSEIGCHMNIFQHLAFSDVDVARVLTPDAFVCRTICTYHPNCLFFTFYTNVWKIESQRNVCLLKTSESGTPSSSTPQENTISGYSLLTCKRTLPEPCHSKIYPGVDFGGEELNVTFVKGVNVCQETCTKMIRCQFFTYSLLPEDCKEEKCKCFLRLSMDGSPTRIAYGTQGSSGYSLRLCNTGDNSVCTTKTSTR
In short: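 Enzyme (2 nM final) pre-incubated 30 min at room temperature with compound (11-point, 3-fold, top 1 μM, 2% DMSO), then 50 μM Z-Gly-Pro-Arg-AMC added in Tris pH 7.5 buffer. Kinetic fluorescence 340/440 nm every 5 min over 30 min; IC50 from 4-parameter logistic fit.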

[1] = kinetic reads over 30 min, 5Fam-KLTRAETV-K5Tamra substrate 15 μM
[2] = kinetic reads over 30 min, Z-Gly-Pro-Arg-AMC substrate 50 μM
[3] = kinetic reads over 30 min, 5Fam-[…]-K5Tamra substrate 15 μM

Row | SMILES | IC50 (Factor XIa; [1]) | IC50 (human plasma kallikrein; [2]) | IC50 (human plasma kallikrein; μM, kinetic reads) | IC50 (Factor XIa; [3]) | IC50 (Factor XIa; μM, kinetic reads)
1 | CS(=O)(=O)Nc1nccc(-c2cnc([C@@H]3CC[C@@H]4CC(c5c(-n6cnnn6)ccc(Cl)c5F)=CC(=O)N43)[nH]2)c1F [Example 367, N-(4-(2-((3S,8aR)-7-(3-chloro-2-fluoro-6-(1H-tetrazol-1-yl)phenyl)-5-oxo-1,2,3,5,8,8a-hexahydroindolizin-3-yl)-1H-imidazol-5-yl)-3-fluoropyridin-2-yl)methanesulfonamide] | 0.0004 µM | 0.0075 µM |  |  | 
2 | Nc1ccncc1-c1c[nH]c([C@@H]2CCC3CC(c4c(-n5cnnn5)ccc(Cl)c4F)=CC(=O)N32)n1 (stereo partly drawn) [Example 253, (3S)-3-[4-(4-Amino-3-pyridyl)-1H-imidazol-2-yl]-7-[3-chloro-2-fluoro-6-(tetrazol-1-yl)phenyl]-2,3,8,8a-tetrahydro-1H-indolizin-5-one] | > 0.1 µM |  | > 1 µM |  | 
3 | Cn1cc(-c2c[nH]c([C@@H]3CCC4CC(c5c(-n6cnnn6)ccc(Cl)c5F)=CC(=O)N43)n2)c(NC(=O)C2CC2)n1 (stereo partly drawn) [Example 259, N-[4-[2-[(3S)-7-[3-Chloro-2-fluoro-6-(tetrazol-1-yl)phenyl]-5-oxo-2,3,8,8a-tetrahydro-1H-indolizin-3-yl]-1H-imidazol-4-yl]-1-methyl-pyrazol-3-yl]cyclopropanecarboxamide] | 0.0027 µM | 0.021 µM |  |  | 
4 | Nc1cc(-c2cnc([C@@H]3CC[C@@H]4CC(c5c(-n6cnnn6)ccc(Cl)c5F)=CC(=O)N43)[nH]2)c(Cl)cn1 [Example 15, (3S,8aR)-3-[5-(2-Amino-5-chloro-4-pyridyl)-1H-imidazol-2-yl]-7-[3-chloro-2-fluoro-6-(tetrazol-1-yl)phenyl]-2,3,8,8a-tetrahydro-1H-indolizin-5-one] | 0.0037 µM | 0.0275 µM |  |  | 
5 | O=C1C=C(c2c(-n3cnnn3)ccc(Cl)c2F)C[C@H]2CC[C@@H](c3ncc(-c4ccnc(C[C@@H](O)C(F)(F)F)c4F)[nH]3)N12 (single isomer, unassigned) [Example 144, (3S,8aR)-7-(3-chloro-2-fluoro-6-(1H-tetrazol-1-yl)phenyl)-3-(5-(3-fluoro-2-((*R)-3,3,3-trifluoro-2-hydroxypropyl)pyridin-4-yl)-1H-imidazol-2-yl)-2,3,8,8a-tetrahydroindolizin-5(1H)-one] | 0.0031 µM | 0.0435 µM |  |  | 
6 | O=C1C=C(c2c(-n3cnnn3)ccc(Cl)c2F)C[C@@H]2CC[C@@H](c3ncc(-c4ccnc(C(F)(F)F)c4)[nH]3)N12 [Example 353, (3S,8aS)-7-(3-Chloro-2-fluoro-6-(1H-tetrazol-1-yl)phenyl)-3-(5-(2-(trifluoromethyl)pyridin-4-yl)-1H-imidazol-2-yl)-2,3,8,8a-tetrahydroindolizin-5(1H)-one] | 0.0129 µM | 0.0175 µM |  |  | 
7 | NC(=O)c1sc(-c2c[nH]c([C@@H]3CC[C@@H]4CC(c5c(-n6cnnn6)ccc(Cl)c5F)=CC(=O)N43)n2)cc1F [Example 216, 5-(2-((3S,8aR)-7-(3-Chloro-2-fluoro-6-(1H-tetrazol-1-yl)phenyl)-5-oxo-1,2,3,5,8,8a-hexahydroindolizin-3-yl)-1H-imidazol-4-yl)-3-fluorothiophene-2-carboxamide] | 0.0196 µM | 0.0274 µM |  |  | 
8 | O=C1C=C(c2c(-n3cnnn3)ccc(Cl)c2F)C[C@H]2CC[C@H](c3ncc(-c4ccnc(COCP(=O)(O)O)c4F)[nH]3)N12 (relative stereo) [Example 37, (((4-(24(3R*,8aR)-7-(3-chloro-2-fluoro-6-(1H-tetrazol-1-yl)phenyl)-5-oxo-1,2,3,5,8,8a-hexahydroindolizin-3-yl)-1H-imidazol-5-yl)-3-fluoropyridin-2-yl)methoxy)methyl)phosphonic acid] |  | 0.0558 µM |  | 0.0013 µM | 
9 | O=C1C=C(c2c(-n3cnnn3)ccc(Cl)c2F)C[C@H]2CC[C@@H](c3ncc(-c4c[nH]nc4C(F)(F)F)[nH]3)N12 (single isomer, unassigned) [Example 240, (3*S,8a*R)-7-(3-Chloro-2-fluoro-6-(1H-tetrazol-1-yl)phenyl)-3-(5-(3-(trifluoromethyl)-1H-pyrazol-4-yl)-1H-imidazol-2-yl)-2,3,8,8a-tetrahydroindolizin-5(1H)-one] | 0.0006 µM | 0.0129 µM |  |  | 
10 | O=C1CCc2cc(-c3cnc([C@@H]4CC[C@H]5CC(c6c(-n7cnnn7)ccc(Cl)c6F)=CC(=O)N54)[nH]3)ccc2N1 (relative stereo) [Example 280, 6-(2-((3S,8aS)-7-(3-Chloro-2-fluoro-6-(1H-tetrazol-1-yl)phenyl)-5-oxo-1,2,3,5,8,8a-hexahydroindolizin-3-yl)-1H-imidazol-5-yl)-3,4-dihydroquinolin-2(1H)-one] |  | 0.0012 µM |  | 0.0006 µM | 
11 | [2H]c1nc([C@H]2CC[C@]3([2H])CC(c4c(-n5cnnn5)ccc(Cl)c4F)=CC(=O)N23)[nH]c1-c1c(F)nc(N)c([2H])c1[2H] (single isomer, unassigned) [Example 131, (3R*,8aR*)-3-(5-(6-amino-2-fluoropyridin-3-yl-4,5-d2)-1H-imidazol-2-yl-4-d)-7-(3-chloro-2-fluoro-6-(1H-tetrazol-1-yl)phenyl)-2,3,8,8a-tetrahydroindolizin-5(1H)-one-8a-d] |  | 0.0117 µM |  | 0.0009 µM | 
12 | COC(=O)Nc1ccc(-c2cnc([C@@H]3CC[C@H]4CC(c5c(F)ccc(Cl)c5OC(F)F)=CC(=O)N43)[nH]2)cc1 (relative stereo) [Example 319, Methyl (4-(2-((3S,8aS)-7-(3-Chloro-2-(difluoromethoxy)-6-fluorophenyl)-5-oxo-1,2,3,5,8,8a-hexahydroindolizin-3-yl)-1H-imidazol-5-yl)phenyl)carbamate] |  | 0.455 µM |  |  | 2.2 µM
13 | CCOC(=O)Nc1ccncc1-c1c[nH]c([C@@H]2CC[C@H]3CC(c4c(-n5cnnn5)ccc(Cl)c4F)=CC(=O)N32)n1 [Example 268, Ethyl N-[3-[2-[(3S,8aS)-7-[3-chloro-2-fluoro-6-(tetrazol-1-yl)phenyl]-5-oxo-2,3,8,8a-tetrahydro-1H-indolizin-3-yl]-1H-imidazol-4-yl]-4-pyridyl]carbamate] | 0.0681 µM | 0.286 µM |  |  | 
14 | NC(=O)c1cccc(-c2cnc([C@@H]3CC[C@@H]4CC(c5c(-n6cnnn6)ccc(Cl)c5F)=CC(=O)N43)[nH]2)c1F [Example 237, 3-(2-((3S,8aR)-7-(3-Chloro-2-fluoro-6-(1H-tetrazol-1-yl)phenyl)-5-oxo-1,2,3,5,8,8a-hexahydroindolizin-3-yl)-1H-imidazol-5-yl)-2-fluorobenzamide] | 0.0056 µM | 0.0015 µM |  |  | 
15 | Cc1cc2c(-c3cnc([C@@H]4CCC5CC(c6c(-n7cnnn7)ccc(Cl)c6F)=CC(=O)N54)[nH]3)c[nH]c2cn1 (stereo partly drawn) [Example 381, (3S)-7-(3-chloro-2-fluoro-6-(1H-tetrazol-1-yl)phenyl)-3-(5-(5-methyl-1H-pyrrolo[2,3-c]pyridin-3-yl)-1H-imidazol-2-yl)-2,3,8,8a-tetrahydroindolizin-5(1H)-one] | 0.0171 µM | 0.0136 µM |  |  | 
16 | CO[C@H]1C[C@@H](c2nc(-c3ccc(N)nc3F)c[nH]2)N2C(=O)C=C(c3c(-n4cnnn4)ccc(Cl)c3F)CC12 (stereo partly drawn) [Example 285, (1 S,3S)-3-(4-(6-Amino-2-fluoropyridin-3-yl)-1H-imidazol-2-yl)-7-(3-chloro-2-fluoro-6-(1H-tetrazol-1-yl)phenyl)-1-methoxy-2,3,8,8a-tetrahydroindolizin-5(1H)-one] | 0.0091 µM | 0.207 µM |  |  | 
17 | COC(=O)Nc1ccc(-c2cnc([C@@H]3CC[C@H]4CC(c5c(-n6cnnn6)ccc(Cl)c5F)=CC(=O)N43)[nH]2)nc1 (relative stereo) [Example 322, Methyl (6-(2-((3S,8aS)-7-(3-Chloro-2-fluoro-6-(1H-tetrazol-1-yl)phenyl)-5-oxo-1,2,3,5,8,8a-hexahydroindolizin-3-yl)-1H-imidazol-5-yl)pyridin-3-yl)carbamate] |  | 0.0103 µM |  | 0.0008 µM | 
18 | O=C1C=C(c2c(-n3cnnn3)ccc(Cl)c2F)C[C@H]2CC[C@@H](c3ncc(-c4ccnc(COP(=O)(O)O)c4F)[nH]3)N12 [Example 61, (4-(2-((3S,8aR)-7-(3-chloro-2-fluoro-6-(1H-tetrazol-1-yl)phenyl)-5-oxo-1,2,3,5,8,8a-hexahydroindolizin-3-yl)-1H-imidazol-5-yl)-3-fluoropyridin-2-yl)methyl dihydrogen phosphate] | 0.0005 µM | 0.0444 µM |  |  | 
19 | NC(=O)c1ncc(-c2c[nH]c([C@@H]3CC[C@@H]4CC(c5c(-n6cc(C(F)(F)F)nn6)ccc(Cl)c5F)=CC(=O)N43)n2)s1 (single isomer, unassigned) [Example 210] | 0.0093 µM | 0.0207 µM |  |  | 
20 | COC(=O)Nc1cc(-c2cnc([C@@H]3CC[C@@H]4CC(c5c(-n6cnnn6)ccc(Cl)c5F)=CC(=O)N43)[nH]2)ccn1 [Example 99, Methyl (4-(2-((3S,8aR)-7-(3-chloro-2-fluoro-6-(1H-tetrazol-1-yl)phenyl)-5-oxo-1,2,3,5,8,8a-hexahydroindolizin-3-yl)-1H-imidazol-5-yl)pyridin-2-yl)carbamate] | 0.0023 µM | 0.0032 µM |  |  | 
21 | CC12CC[C@@H](c3ncc(-c4ccnc(CO)c4F)[nH]3)N1C(=O)C=C(c1c(-n3cnnn3)ccc(Cl)c1F)C2 (stereo partly drawn) [Example 391, (3S)-7-(3-chloro-2-fluoro-6-(1H-tetrazol-1-yl)phenyl)-3-(5-(3-fluoro-2-(hydroxymethyl)pyridin-4-yl)-1H-imidazol-2-yl)-8a-methyl-2,3,8,8a-tetrahydroindolizin-5(1H)-one] | 0.0333 µM | 0.0354 µM |  |  | 
